Data from patent US8247211B2, “Glycopeptide antibiotics” (American Cyanamid Company, priority 2001, dated 2012).
Values after ≈ are worked out from the molar mass of the structure shown.

Experiments:
Test in all cases: In vitro antibacterial evaluation: minimum inhibitory concentration (MIC), broth dilution method
Type in all cases: cell-based
Streptococcus sp. = system: Streptococcus sp.
In short: (§1)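 Using Muller-Hinton II […] and an inoculum of 5×10^5 CFU/mL, antibiotic dilutions from 64 down to 0.06 μg/mL were tested following NCCLS M7-A2. The MIC is the lowest concentration inhibiting growth, including in methicillin-, penicillin- or vancomycin-resistant clinical isolates.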

Enterococcus sp. = system: Enterococcus sp.
In short: as §1

Escherichia coli = system: Escherichia coli
In short: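 Test strains, among them recent clinical isolates carrying methicillin, penicillin and/or vancomycin resistance, were inoculated at 5×10^5 CFU/mL. A broth dilution series spanning 64-0.06 μg/mL in Muller-Hinton II […] (NCCLS M7-A2) defined the MIC as the lowest growth-inhibiting concentration.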

Staphylococcus sp. = conditions: for MIC Staphylococcus aureus-SMITH (GC 4543): strain GC 4543; for MIC Staphylococcus haemolyticus (GC 4546): strain GC 4546; for MIC Coagulase Negative Staphylococcus (GC 4547): strain GC 4547; for MIC Coagulase Negative Staphylococcus (GC 4548): strain GC 4548; for MIC Coagulase Negative Staphylococcus (GC 4549): strain GC 4549; for MIC Coagulase Negative Staphylococcus (GC 4551): strain GC 4551; for MIC Coagulase Negative Staphylococcus (ID-3941): strain ID-3941; for MIC Staphylococcus aureus (GC 3051): strain GC 3051; for MIC Staphylococcus aureus (GC 3053): strain GC 3053; for MIC Coagulase Negative Staphylococcus (GC 6257): strain GC 6257
In short: as §1

[1] = broth dilution, 18 hours at 35° C.
[2] = broth dilution, 5×10^5 CFU/mL, 18 hours at 35° C.
[3] = 5×10^5 CFU/mL, 18 hours at 35° C.

CCCC(CCC)C(=O)OCC1OC(Oc2ccc(CC3NC(=O)C(C(C)c4ccccc4)NC(=O)CNC(=O)C(CO)NC(=O)C(C(O)C4CNC(=N)N4C4OC(CO)C(O)C(O)C4O)NC(=O)C(C(O)C4CNC(=N)N4)NC3=O)cc2)C(O)C(O)C1OC1OC(CO)C(O)C(O)C1O (stereo not drawn) [Example 99b, Cyclo[glycyl-β-methylphenylalanyl-O-(4-O-hexopyranosyl-6-O-(2-propylpentanoyl)hexopyranosyl]tyrosyl-3-(2-iminoimidazolidin-4-yl)seryl-3-(3-hexopyranosyl-2-iminoimidazolidin-4-yl)serylseryl]]
MIC Streptococcus agalactiae (GC 4564) (Streptococcus sp.; strain GC 4564): 2 µg/mL (≈ 1.41 µM)
MIC Streptococcus pneumoniae (GC 4565) (Streptococcus sp.; strain GC 4565): <0.5 µg/mL
MIC Streptococcus pyogenes (ID-3187) (Streptococcus sp.; strain ID-3187): 1 µg/mL (≈ 0.703 µM)
MIC Enterococcus faecalis (ATCC 29212) (Enterococcus sp.; strain ATCC 29212): 16 µg/mL (≈ 11.3 µM)
MIC Enterococcus faecalis (GC 2242) (Enterococcus sp.; strain GC 2242): 16 µg/mL (≈ 11.3 µM)
MIC Enterococcus faecium (GC 2243) (Enterococcus sp.; strain GC 2243): 16 µg/mL (≈ 11.3 µM)
MIC Enterococcus faecalis (GC 4552) (Enterococcus sp.; strain GC 4552): 32 µg/mL (≈ 22.5 µM)
MIC Enterococcus faecalis (GC 4553) (Enterococcus sp.; strain GC 4553): 16 µg/mL (≈ 11.3 µM)
MIC Enterococcus faecalis (GC 4554) (Enterococcus sp.; strain GC 4554): 32 µg/mL (≈ 22.5 µM)
MIC Enterococcus faecium (GC 4556) (Enterococcus sp.; strain GC 4556): 16 µg/mL (≈ 11.3 µM)
MIC Enterococcus faecium (GC 4557) (Enterococcus sp.; strain GC 4557): 4 µg/mL (≈ 2.81 µM)
MIC Enterococcus avium (GC 4558) (Enterococcus sp.; strain GC 4558): 16 µg/mL (≈ 11.3 µM)
MIC Escherichia coli (ATCC 25922) (Escherichia coli; strain ATCC 25922): >64 µg/mL
MIC Staphylococcus aureus (ATCC 29213) (Staphylococcus sp.; [1]): 4 µg/mL (≈ 2.81 µM)
MIC Staphylococcus aureus (GC 1131) (Staphylococcus sp.; [1]): 4 µg/mL (≈ 2.81 µM)
MIC Staphylococcus aureus (GC 4541) (Staphylococcus sp.; [1]): 4 µg/mL (≈ 2.81 µM)
MIC Staphylococcus aureus (GC 4542) (Staphylococcus sp.; [1]): 4 µg/mL (≈ 2.81 µM)
MIC Staphylococcus aureus (GC 4544) (Staphylococcus sp.; [1]): 4 µg/mL (≈ 2.81 µM)
MIC Staphylococcus aureus (GC 4545) (Staphylococcus sp.; [1]): 4 µg/mL (≈ 2.81 µM)
MIC Staphylococcus aureus-SMITH (GC 4543) (Staphylococcus sp.; 18 hours at 35° C.): 4 µg/mL (≈ 2.81 µM)
MIC Staphylococcus aureus-SMITH (GC 4543) (Staphylococcus sp.; [1]): 4 µg/mL (≈ 2.81 µM)
MIC Staphylococcus haemolyticus (GC 4546) (Staphylococcus sp.): 4 µg/mL (≈ 2.81 µM)
MIC Staphylococcus haemolyticus (GC 4546) (Staphylococcus sp.; [1]): 4 µg/mL (≈ 2.81 µM)
MIC Coagulase Negative Staphylococcus (GC 4547) (Staphylococcus sp.): 4 µg/mL (≈ 2.81 µM)
MIC Coagulase Negative Staphylococcus (GC 4547) (Staphylococcus sp.; [1]): 4 µg/mL (≈ 2.81 µM)
MIC Coagulase Negative Staphylococcus (GC 4548) (Staphylococcus sp.): 4 µg/mL (≈ 2.81 µM)
MIC Coagulase Negative Staphylococcus (GC 4548) (Staphylococcus sp.; [1]): 4 µg/mL (≈ 2.81 µM)
MIC Coagulase Negative Staphylococcus (GC 4549) (Staphylococcus sp.): 2 µg/mL (≈ 1.41 µM)
MIC Coagulase Negative Staphylococcus (GC 4549) (Staphylococcus sp.; [1]): 2 µg/mL (≈ 1.41 µM)
MIC Coagulase Negative Staphylococcus (GC 4551) (Staphylococcus sp.): 8 µg/mL (≈ 5.63 µM)
MIC Coagulase Negative Staphylococcus (GC 4551) (Staphylococcus sp.; [1]): 8 µg/mL (≈ 5.63 µM)
MIC Coagulase Negative Staphylococcus (ID-3941) (Staphylococcus sp.): 2 µg/mL (≈ 1.41 µM)
MIC Coagulase Negative Staphylococcus (ID-3941) (Staphylococcus sp.; [1]): 2 µg/mL (≈ 1.41 µM)

CC(c1ccccc1)C1NC(=O)CNC(=O)C(CO)NC(=O)C(C(O)C2CNC(=N)N2C2OC(CO)C(O)C(O)C2O)NC(=O)C(C(O)C2CNC(=N)N2)NC(=O)C(Cc2ccc(OC3OC(CO)C(OC4OC5COC(CCc6ccccc6)OC5C(O)C4O)C(O)C3O)cc2)NC1=O (centres unmarked) [Example 124]
MIC Streptococcus agalactiae (GC 4564) (Streptococcus sp.; [2]): 1 µg/mL (≈ 0.708 µM)
MIC Streptococcus pneumoniae (GC 1894) (Streptococcus sp.; [2]): <0.06 µg/mL
MIC Streptococcus pneumoniae (GC 4565) (Streptococcus sp.; [2]): <0.06 µg/mL
MIC Streptococcus pneumonine (ATCC 6301) (Streptococcus sp.; [2]): <0.06 µg/mL
MIC Streptococcus pyogenes (GC 4563) (Streptococcus sp.; [2]): 0.12 µg/mL (≈ 0.085 µM)
MIC Enterococccus avium (GC 4558) (Enterococcus sp.; [2]): 0.25 µg/mL (≈ 0.177 µM)
MIC Enterococccus faecalis (ATCC 29212) (Enterococcus sp.; [2]): 4 µg/mL (≈ 2.83 µM)
MIC Enterococccus faecalis (GC 2691) (Enterococcus sp.; [2]): 4 µg/mL (≈ 2.83 µM)
MIC Enterococccus faecalis (GC 3059) (Enterococcus sp.; [2]): 4 µg/mL (≈ 2.83 µM)
MIC Enterococccus faecalis (GC 4552) (Enterococcus sp.; [2]): 4 µg/mL (≈ 2.83 µM)
MIC Enterococccus faecalis (GC 4553) (Enterococcus sp.; [2]): 4 µg/mL (≈ 2.83 µM)
MIC Enterococccus faecalis (GC 4554) (Enterococcus sp.; [2]): 4 µg/mL (≈ 2.83 µM)
MIC Enterococccus faecalis (GC 6189) (Enterococcus sp.; [2]): 4 µg/mL (≈ 2.83 µM)
MIC Enterococccus faecium (GC 2243) (Enterococcus sp.; [2]): 4 µg/mL (≈ 2.83 µM)
MIC Enterococccus faecium (GC 4556) (Enterococcus sp.; [2]): 4 µg/mL (≈ 2.83 µM)
MIC Enterococccus faecium (GC 4557) (Enterococcus sp.; [2]): 1 µg/mL (≈ 0.708 µM)
MIC Enterococcus faecalis (GC 2242) (Enterococcus sp.; [2]): 4 µg/mL (≈ 2.83 µM)
MIC Escherichia coli (ATCC 25922) (Escherichia coli; [3]): 32 µg/mL (≈ 22.7 µM)
MIC Escherichia coli (GC 4559) (Escherichia coli; [3]): 32 µg/mL (≈ 22.7 µM)
MIC Escherichia coli (GC 4560) (Escherichia coli; [3]): 1 µg/mL (≈ 0.708 µM)
MIC Staphylococcus aureus (ATCC 29213) (Staphylococcus sp.; strain ATCC 29213): 2 µg/mL (≈ 1.42 µM)
MIC Staphylococcus aureus (ATCC 29213) (Staphylococcus sp.; strain ATCC 29213, broth dilution, 18 hours at 35° C.): 2 µg/mL (≈ 1.42 µM)
MIC Staphylococcus aureus (GC 1131) (Staphylococcus sp.; strain GC 1131): 2 µg/mL (≈ 1.42 µM)
MIC Staphylococcus aureus (GC 1131) (Staphylococcus sp.; strain GC 1131, broth dilution, 18 hours at 35° C.): 2 µg/mL (≈ 1.42 µM)
MIC Staphylococcus aureus (GC 3051) (Staphylococcus sp.): 2 µg/mL (≈ 1.42 µM)
MIC Staphylococcus aureus (GC 3051) (Staphylococcus sp.; [1]): 2 µg/mL (≈ 1.42 µM)
MIC Staphylococcus aureus (GC 3053) (Staphylococcus sp.): 2 µg/mL (≈ 1.42 µM)
MIC Staphylococcus aureus (GC 3053) (Staphylococcus sp.; [1]): 2 µg/mL (≈ 1.42 µM)
MIC Staphylococcus aureus (GC 4541) (Staphylococcus sp.; strain GC 4541): 2 µg/mL (≈ 1.42 µM)
MIC Staphylococcus aureus (GC 4541) (Staphylococcus sp.; strain GC 4541, broth dilution, 18 hours at 35° C.): 2 µg/mL (≈ 1.42 µM)
MIC Staphylococcus aureus (GC 4542) (Staphylococcus sp.; strain GC 4542): 1 µg/mL (≈ 0.708 µM)
MIC Staphylococcus aureus (GC 4542) (Staphylococcus sp.; strain GC 4542, broth dilution, 18 hours at 35° C.): 1 µg/mL (≈ 0.708 µM)
MIC Staphylococcus aureus-SMITH (GC 4543) (Staphylococcus sp.; 18 hours at 35° C.): 2 µg/mL (≈ 1.42 µM)
MIC Staphylococcus aureus-SMITH (GC 4543) (Staphylococcus sp.; [1]): 2 µg/mL (≈ 1.42 µM)
MIC Staphylococcus aureus (GC 4544) (Staphylococcus sp.; strain GC 4544): 2 µg/mL (≈ 1.42 µM)
MIC Staphylococcus aureus (GC 4544) (Staphylococcus sp.; strain GC 4544, broth dilution, 18 hours at 35° C.): 2 µg/mL (≈ 1.42 µM)
MIC Staphylococcus aureus (GC 4545) (Staphylococcus sp.; strain GC 4545): 2 µg/mL (≈ 1.42 µM)
MIC Staphylococcus aureus (GC 4545) (Staphylococcus sp.; strain GC 4545, broth dilution, 18 hours at 35° C.): 2 µg/mL (≈ 1.42 µM)
MIC Staphylococcus haemolyticus (GC 4546) (Staphylococcus sp.): 2 µg/mL (≈ 1.42 µM)
MIC Staphylococcus haemolyticus (GC 4546) (Staphylococcus sp.; [1]): 2 µg/mL (≈ 1.42 µM)
MIC Coagulase Negative Staphylococcus (GC 4547) (Staphylococcus sp.): 2 µg/mL (≈ 1.42 µM)
MIC Coagulase Negative Staphylococcus (GC 4547) (Staphylococcus sp.; [1]): 2 µg/mL (≈ 1.42 µM)
MIC Coagulase Negative Staphylococcus (GC 4548) (Staphylococcus sp.): 1 µg/mL (≈ 0.708 µM)
MIC Coagulase Negative Staphylococcus (GC 4548) (Staphylococcus sp.; [1]): 1 µg/mL (≈ 0.708 µM)
MIC Coagulase Negative Staphylococcus (GC 4549) (Staphylococcus sp.): 1 µg/mL (≈ 0.708 µM)
MIC Coagulase Negative Staphylococcus (GC 4549) (Staphylococcus sp.; [1]): 1 µg/mL (≈ 0.708 µM)
MIC Coagulase Negative Staphylococcus (GC 4551) (Staphylococcus sp.): 2 µg/mL (≈ 1.42 µM)
MIC Coagulase Negative Staphylococcus (GC 4551) (Staphylococcus sp.; [1]): 2 µg/mL (≈ 1.42 µM)
MIC Coagulase Negative Staphylococcus (GC 6257) (Staphylococcus sp.): 1 µg/mL (≈ 0.708 µM)
MIC Coagulase Negative Staphylococcus (GC 6257) (Staphylococcus sp.; [1]): 1 µg/mL (≈ 0.708 µM)
